From US20240423948A1, “5-HYDROXYMETHYLFURFURAL FOR THE TREATMENT OF MITOCHONDRIAL DYSFUNCTION” (D-CAP LLC, priority 2021, published 2024)

What was measured:
Format in all cases: cell-based, murine
Hepa1-6 cell line [1] = assay: Cytotoxicity (CyQuant LDH Cytotoxicity Assay); details: single agent, 24 h, lower and higher dose range, FIG. 1C and 1F
Description: Cells were seeded at a density of 20 000 cells per well in 96 well plates and incubated for overnight to allow the cells to attach at 37° C. with 5% CO2. Cells were then supplemented with the test substances at indicated concentrations and incubated for indicated time periods (24 h). For all assays the test substances were diluted in 10% DMSO/PBS further diluted with culture medium and added to the cells at the indicated concentrations with a final DMSO concentration of 0.01%. Vehicle controls were treated with 0.01% DMSO. Cytotoxicity: Cytotoxicity was assessed using the CyQuant™ LDH Cytotoxicity Assay Kit (#C20300/C20301, Thermo Fisher). After cells were cultured with the test substances for 24 h, 50 μL of the cell culture medium were transferred to a new 96 well plate and the cytotoxicity assay was performed as per the manufacturer's instructions. Absorbance was measured at 490 nm and background at 680 nm. The signal intensity of untreated cells was considered as the background signal of spontaneous LDH release and subtracted from all measurements. Cytotoxicity was expressed as the percentage of maximum signal intensity observed in freshly lysed cells. Flat, clear plate. 10 μM FCCP, 1 μM oligomycin, 0.1% Triton X as positive control.

Hepa1-6 cell line [2] = assay: Mitochondrial reactive oxygen species (MitoSOX Red); details: for MitoSOX levels: 24 h
Description: Cell culture: The Hepa1-6 cell line (#CRL-1830, ATCC) was cultured in DMEM culture medium containing 1 g/L glucose, 10% fetal bovine serum, 2 mM glutamine, 100 U/mL Penicillin and 100 μg/mL Streptomycin and 30 μM oleic acid. Cells were seeded at a density of 20 000 cells per well in 96 well plates and incubated for overnight to allow the cells to attach at 37° C. with 5% CO2. Cells were then supplemented with the test substances at indicated concentrations and incubated for indicated time periods (24 h). For all assays the test substances were diluted in 10% DMSO/PBS further diluted with culture medium and added to the cells at the indicated concentrations with a final DMSO concentration of 0.01%. Vehicle controls were treated with 0.01% DMSO. Mitochondrial reactive oxygen species (ROS); Cells were treated for 24 h with the test substances at the indicated concentration, as well as positive (10 μM FCCP and 1 μM oligomycin) and negative control. Mitochondrial ROS was detected using MitoSOX™ Red mitochondrial superoxide indicator (#M36008, Invitrogen/Thermo Fisher Scientific). After 24 h treatment of the substances, cells were washed with 100 μl assay buffer (DMEM without phenol red with 4 mM L-glutamine, 4.5 g/L glucose and 1 mM Na-Pyruvate, pH7.4) three times, and 100 μl of […] MitoSOX Red (5 mM MitoSOX™ Red stock solution prepared as indicated by the manufacturer's instruction diluted in 1:2 500 in assay buffer) was added per well, followed by incubation for 30min at 37° C. with 5% CO2. After the incubation cells were washed with 100 μl assay buffer and 100 μl assay buffer was added per well. Fluorescence was measured at excitation 510 nm and emission 580 nm. Use flat, black bottom plates were used.

Hepa1-6 cell line [3] = assay: ATP content (CellTiter-Glo Assay); details: for ATP levels: single agent, 24 h, lower (0.1-100 μM) and higher dose range, FIG. 1A and 1D
Description: Cell culture: The Hepa1-6 cell line (#CRL-1830, ATCC) was cultured in DMEM culture medium containing 1 g/L glucose, 10% fetal bovine serum, 2 mM glutamine, 100 U/mL Penicillin and 100 μg/mL Streptomycin and 30 μM oleic acid. Cells were seeded at a density of 20 000 cells per well in 96 well plates and incubated for overnight to allow the cells to attach at 37° C. with 5% CO2. Cells were then supplemented with the test substances at indicated concentrations and incubated for indicated time periods (24 h). For all assays the test substances were diluted in 10% DMSO/PBS further diluted with culture medium and added to the cells at the indicated concentrations with a final DMSO concentration of 0.01%. Vehicle controls were treated with 0.01% DMSO. ATP content: Cells were treated for 24 h with the test substances at the indicated concentrations. The cellular ATP content was assessed using the CellTiter-Glo Assay (#G7571, Promega) as per the manufacturer's instructions. Luminescence was detected in a plate reader spectrophotometer. The results were normalized to the luminescence intensity measured in vehicle treated cells and positive controls treated with 0.1% Triton-X, as well as 10 μM FCCP and 1 μM oligomycin. Flat, white bottom plate.

[4] = single agent, lower and higher dose range, FIG. 1B and 1E

Structure (SMILES)	cytotoxicity (LDH) (Hepa1-6 cell line [1])	effect on mitochondrial function (mitochondrial ROS levels) compared with metformin (Hepa1-6 cell line [2]; FIG. 1 legend, overall)	effect on mitochondrial function (MitoSOX) compared with Metformin (Hepa1-6 cell line [2]; lower dose range (physiological doses of Metformin), FIG. 1B)	MitoSOX levels (Hepa1-6 cell line [2]; [4])	effect on mitochondrial function (ATP levels) compared with metformin (Hepa1-6 cell line [3]; FIG. 1 legend, overall)	effect on mitochondrial function (ATP levels) compared with metformin (Hepa1-6 cell line [3]; lower dose range (physiological doses of Metformin), FIG. 1A)	ATP levels (Hepa1-6 cell line [3])	MitoSOX levels (Hepa1-6 cell line [2]; positive control, 1 μM oligomycin)
O=Cc1ccc(CO)o1 [5-HMF, 5-Hydroxymethylfurfural]	without cytotoxic effects	comparable to that of metformin	milder than that of Metformin	trend of slight increase of MitoSOX levels	comparable to that of metformin	milder than that of Metformin	ATP reduction	–
CN(C)C(=N)N=C(N)N [Metformin, reference compound]	without cytotoxic effects	–	–	trend of slight increase of MitoSOX levels	–	–	ATP reduction	–
CC[C@H]1/C=C/C=C/C[C@@H](C)[C@H](O)[C@@](C)(O)C(=O)[C@@H](C)[C@H](O)[C@@H](C)C(=O)[C@@H](C)[C@H](O)[C@@H](C)/C=C/C(=O)O[C@@H]2[C@H](C)[C@H](CC1)O[C@]1(CC[C@H](C)[C@H](C[C@@H](C)O)O1)[C@H]2C [oligomycin, reference compound]	–	–	–	–	–	–	–	no statistically significance
